Data as given in ChEMBL document CHEMBL3580661, “Structure-Guided Design of Group I Selective p21-Activated Kinase Inhibitors” (J Med Chem, 2015).
pIC50, pKi: −log10 of the molar value. Values after ≈ are worked out from the molar mass of the structure shown.

Legend:
[1] = molecular target: T1, Serine/threonine-protein kinase PAK 1 (Homo sapiens, UniProt Q13153); test: Inhibition of human recombinant PAK1 kinase domain using coumarin/fluorescein-labeled FRET peptide as substrate assessed as substrate phosphorylation at Ser/Thr19 preincubated for 10 mins followed by ATP addition measured after 60 mins by Z'-LYTE assay
[2] = Metabolic stability in rat liver S9 fraction assessed as compound remaining at 1 uM measured at 60 mins in presence of NADPH; format: ADME, subcellular; conditions: read-out: Stability
Liver [3] = test: Metabolic stability in rat liver S9 fraction at 1 uM after 60 mins in absence of NADPH; format: ADME; conditions: s9, 1 h
[4] = molecular target: T2, Serine/threonine-protein kinase PAK 4 (Homo sapiens, UniProt O96013); test: Inhibition of human recombinant PAK4 kinase domain using coumarin/fluorescein-labeled FRET peptide as substrate assessed as substrate phosphorylation at Ser/Thr19 preincubated for 10 mins followed by ATP addition measured after 60 mins by Z'-LYTE assay
[5] = Drug metabolism in rat liver S9 fraction assessed as N-acetyltransferase-mediated metabolite formation by measuring parent compound level at 1 uM after 60 mins in presence of acetyl CoA, NADPH; format: ADME, subcellular; conditions: s9, 1 h
Mus musculus = test: Plasma clearance in mouse at 2 mg/kg, iv administered as bolus dose; format: ADME, organism-based; conditions: in vivo
[6] = molecular target: T1, Serine/threonine-protein kinase PAK 1; test: Inhibition of PAK1 in human EBC1 cells assessed as inhibition of MEK phosphorylation at S298 after 2 hrs by HTRF assay; format: cell-based
[7] = Apparent permeability across apical to basolateral side in MDCK cells; format: ADME, cell-based, Canis lupus familiaris; conditions: dog
Hepatocyte = test: Drug uptake in mouse hepatocytes; format: ADME, cell-based
[8] = Apparent permeability across basolateral to apical side in MDCK cells; format: ADME, cell-based, Canis lupus familiaris; conditions: dog
[9] = Kinetic solubility of the compound; format: physicochemical; conditions: read-out: Kinetic_solubility
[10] = Lipophilicity, log D of the compound; format: physicochemical; conditions: octanol/water
Rattus norvegicus = test: Plasma clearance in rat at 2.5 mg/kg, iv administered as bolus dose; format: ADME, organism-based; conditions: in vivo
Liver [11] = test: Metabolic stability in rat liver S9 fraction at 1 uM after 60 mins in presence of NADPH; format: ADME, subcellular; conditions: s9, 1 h
[12] = Plasma clearance in rat at 2 mg/kg, iv administered as bolus dose; format: ADME, organism-based
[13] = Plasma protein binding in rat; format: ADME, cell-free; conditions: read-out: PPB (converted)
[14] = molecular target: T1, Serine/threonine-protein kinase PAK 1; test: Inhibition of PAK1 (unknown origin)
[15] = molecular target: T2, Serine/threonine-protein kinase PAK 4; test: Inhibition of human PAK4
[16] = Drug metabolism in rat liver S9 fraction assessed as N-acetyltransferase-mediated metabolite formation by measuring parent compound level at 1 uM after 80 mins in presence of acetyl CoA, NADPH; format: ADME, subcellular; conditions: s9, 80 min
[17] = Drug metabolism in rat liver S9 fraction assessed as glucuronide metabolite formation at 1 uM in presence of UDPGA; format: ADME, subcellular; conditions: s9, 1 µM
[18] = Drug metabolism in rat liver S9 fraction assessed as oxidative metabolite formation by measuring parent compound level at 1 uM measured over 60 mins in presence of NADPH; format: ADME, subcellular; conditions: s9, 1 h
[19] = Plasma clearance in rat at 1 mg/kg, iv administered as bolus dose; format: ADME, organism-based
[20] = Lipophilicity, log D of the compound at pH 7.4; format: physicochemical; conditions: buffer
[21] = Drug metabolism in rat liver S9 fraction assessed as N-acetyltransferase-mediated metabolite formation at 1 uM measured over 60 mins in presence of acetyl CoA, NADPH; format: ADME, subcellular; conditions: s9, 1 h
[22] = Oral bioavailability in rat at 5 mg/kg; format: ADME, organism-based; conditions: in vivo
Aurora kinase A = molecular target: T3, Aurora kinase A (Homo sapiens, UniProt O14965); test: Inhibition of aurora A (unknown origin)
T3 sequence (O14965 whole entry): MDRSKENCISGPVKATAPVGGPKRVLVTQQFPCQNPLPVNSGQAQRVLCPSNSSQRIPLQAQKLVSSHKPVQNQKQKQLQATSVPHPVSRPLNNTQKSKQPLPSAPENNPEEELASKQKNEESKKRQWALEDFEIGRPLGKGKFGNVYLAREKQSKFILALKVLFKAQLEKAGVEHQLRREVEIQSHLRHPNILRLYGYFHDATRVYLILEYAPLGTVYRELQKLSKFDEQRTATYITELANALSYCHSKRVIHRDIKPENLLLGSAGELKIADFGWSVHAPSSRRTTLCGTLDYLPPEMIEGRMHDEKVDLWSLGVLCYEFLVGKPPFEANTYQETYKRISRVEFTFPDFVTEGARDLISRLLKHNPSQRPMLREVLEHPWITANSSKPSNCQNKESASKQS

T2 sequence (O96013 whole entry, the tested form may be a part): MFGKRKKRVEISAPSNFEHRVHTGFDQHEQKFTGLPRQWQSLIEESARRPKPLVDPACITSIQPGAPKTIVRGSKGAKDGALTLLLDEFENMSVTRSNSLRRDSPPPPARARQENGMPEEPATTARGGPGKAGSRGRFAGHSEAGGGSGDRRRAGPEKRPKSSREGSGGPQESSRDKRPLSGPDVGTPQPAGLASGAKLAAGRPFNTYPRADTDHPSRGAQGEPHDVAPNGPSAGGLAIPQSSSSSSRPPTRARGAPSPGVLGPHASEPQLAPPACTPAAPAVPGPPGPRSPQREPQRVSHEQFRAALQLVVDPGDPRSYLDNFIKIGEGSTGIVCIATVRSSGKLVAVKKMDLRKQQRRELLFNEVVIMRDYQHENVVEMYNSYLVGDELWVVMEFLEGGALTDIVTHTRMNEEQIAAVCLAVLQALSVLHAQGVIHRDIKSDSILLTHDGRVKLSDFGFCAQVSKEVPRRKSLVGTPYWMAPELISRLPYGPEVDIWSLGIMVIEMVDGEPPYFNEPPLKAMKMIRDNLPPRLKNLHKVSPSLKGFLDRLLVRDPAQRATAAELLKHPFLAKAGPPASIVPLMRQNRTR
T1 sequence (Q13153 whole entry, the tested form may be a part): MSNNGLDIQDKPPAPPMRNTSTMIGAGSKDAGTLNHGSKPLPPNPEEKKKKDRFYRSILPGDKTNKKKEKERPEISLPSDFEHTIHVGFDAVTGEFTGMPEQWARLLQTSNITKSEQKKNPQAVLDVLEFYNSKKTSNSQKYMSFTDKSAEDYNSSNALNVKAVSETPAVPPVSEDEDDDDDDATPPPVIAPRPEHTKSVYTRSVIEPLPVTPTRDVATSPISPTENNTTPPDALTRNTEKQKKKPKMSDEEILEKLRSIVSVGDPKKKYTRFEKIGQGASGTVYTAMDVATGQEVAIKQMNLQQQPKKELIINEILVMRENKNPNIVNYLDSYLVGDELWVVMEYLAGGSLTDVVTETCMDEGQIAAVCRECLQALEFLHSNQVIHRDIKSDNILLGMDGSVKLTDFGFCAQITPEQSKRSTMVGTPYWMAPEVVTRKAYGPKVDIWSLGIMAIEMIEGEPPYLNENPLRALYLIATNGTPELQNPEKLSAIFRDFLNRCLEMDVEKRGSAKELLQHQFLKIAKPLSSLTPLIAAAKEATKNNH

## NC1CCN(c2nc(Nc3cc(-c4ccccc4)[nH]n3)c3sccc3n2)CC1
[1]
  pKi: 6.18

## NC1CCN(c2nc(Nc3cc(C4CC4)[nH]n3)c3sccc3n2)CC1
[2]
  remaining at 1 h, 1 µM: 51%
[1]
  pKi: 7.66
Liver [3]
  Stability: Stable
[4]
  pKi: 7.92
[5]
  Stability: < 1%

## N[C@H]1CC[C@@H](CNc2nccc(Nc3cc(C4CC4)[nH]n3)n2)CC1
[1]
  pKi: 7.68
[4]
  pKi: 8.40

## CN(C)c1ccc(CNc2nccc(Nc3cc(C4CC4)[nH]n3)n2)cn1
[1]
  pKi: 5.83
[4]
  pKi: 6.04

## N[C@H]1CC[C@H](CNc2nccc(Nc3cc(C4CC4)[nH]n3)n2)CC1
Mus musculus
  clearance: 83 mL/min/kg
[1]
  pKi: 7.59
[6]
  pIC50: 5.66
Liver [3]
  Stability: Stable
[4]
  pKi: 7.42
[7]
  Papp A→B: 0.5 ×10⁻⁶ cm/s
Hepatocyte
  Drug uptake: Active
[8]
  Papp B→A: 2 ×10⁻⁶ cm/s
[9]
  solubility kinetic: 149 µM (≈ 48.9 µg/mL)
[5]
  Stability: 69.3%
[10]
  logD: -0.2
Rattus norvegicus
  clearance: 158 mL/min/kg
Liver [11]
  Stability: Stable

## NC1CCN(c2nc(Nc3cc(C4CCC4)[nH]n3)c3sccc3n2)CC1
[1]
  pKi: 7.74

## NC1CCN(c2nc(Nc3cc(C4CC4)[nH]n3)c3occc3n2)CC1
[1]
  pKi: 6.92
[4]
  pKi: 7.35

## C[C@H](Nc1nccc(Nc2cc(C3CC3)[nH]n2)n1)c1ccc2[nH]cnc2c1
[1]
  pKi: 7.92
[6]
  pIC50: 6.55
[4]
  pKi: 6.97
[7]
  Papp A→B: 0.9 ×10⁻⁶ cm/s
[8]
  Papp B→A: 6.8 ×10⁻⁶ cm/s
[12]
  clearance: 20.3 mL/min/kg
[13]
  fraction unbound: 0.011

## Fc1c(CNc2nccc(Nc3cc(C4CC4)[nH]n3)n2)ccc2[nH]cnc12
[1]
  pKi: 6.75
[4]
  pKi: 5.96

## Cn1cnc2ccc(CNc3nccc(Nc4cc(C5CC5)[nH]n4)n3)cc21
[1]
  pKi: 6.23
[4]
  pKi: 5.72

## NC1CCN(c2nccc(Nc3cc(C4CC4)[nH]n3)n2)CC1
[1]
  pKi: 6.34
[4]
  pKi: 6.55

## c1cc(Nc2cc(C3CC3)[nH]n2)nc(NCC2CCNCC2)n1
[1]
  pKi: 6.61
[4]
  pKi: 7.10

## N[C@@H]1[C@H]2CN(c3nc(Nc4cc(C5CC5)[nH]n4)c4sccc4n3)C[C@@H]12
[14]
  pKi: 7.30
[15]
  pKi: 8.70

## CCc1cc(Nc2nc(N3CCC(N)CC3)nc3ccsc23)n[nH]1
[1]
  pKi: 7.48

## Cc1cc(Nc2nc(N3CCC(N)CC3)nc3ccsc23)n[nH]1
[1]
  pKi: 6.75

## Nc1ccc(CNc2nccc(Nc3cc(C4CC4)[nH]n3)n2)cn1
[16]
  Stability: 50%
[17]
  Drug metabolism: metabolite_notdetected
[1]
  pKi: 6.86
[4]
  pKi: 6.25
[18]
  Stability: 60%
[12]
  clearance: 122 mL/min/kg

## CC1CCN(c2nc(Nc3cc(C4CC4)n[nH]3)c3ccccc3n2)CC1
[14]
  pKi: 7.00
[15]
  pKi: 7.31

## NC1CCN(c2cc(Nc3cc(C4CC4)[nH]n3)ccn2)CC1
[1]
  pKi: 5.36
[4]
  pKi: 5.74

## Clc1c(CNc2nccc(Nc3cc(C4CC4)[nH]n3)n2)ccc2[nH]cnc12
[1]
  pKi: 8.30
[6]
  pIC50: 6.44
[4]
  pKi: 6.34
[7]
  Papp A→B: 2.8 ×10⁻⁶ cm/s
[8]
  Papp B→A: 6.3 ×10⁻⁶ cm/s
[19]
  clearance: 6.4 mL/min/kg
[13]
  fraction unbound: 0.002

## c1cc(Nc2cc(C3CC3)[nH]n2)nc(NCc2ccc3[nH]cnc3c2)n1
[1]
  pKi: 6.93
[4]
  pKi: 6.02
[20]
  logD: 2.5
[12]
  clearance: 24.1 mL/min/kg
[21]
  Drug metabolism: metabolite_notdetected

## CC(C)c1cc(Nc2nc(N3CCC(N)CC3)nc3ccsc23)n[nH]1
[1]
  pKi: 7.48

## CCCc1cc(Nc2nc(N3CCC(N)CC3)nc3ccsc23)n[nH]1
[1]
  pKi: 7.32

## CN(Cc1ccc2[nH]cnc2c1Cl)c1nccc(Nc2cc(C3CC3)[nH]n2)n1
[22]
  bioavailability: 12%
[1]
  pKi: 8.40
[6]
  pIC50: 6.96
[7]
  Papp A→B: 1.9 ×10⁻⁶ cm/s
[8]
  Papp B→A: 18 ×10⁻⁶ cm/s
[19]
  clearance: 67 mL/min/kg
[13]
  fraction unbound: 0.011

## C[C@@H](Nc1nccc(Nc2cc(C3CC3)[nH]n2)n1)c1ccc2[nH]ccc2c1
[1]
  pKi: 5.72

## CNc1ccc(CNc2nccc(Nc3cc(C4CC4)[nH]n3)n2)cn1
[1]
  pKi: 6.46
[4]
  pKi: 6.21

## CCN(Cc1ccc2[nH]cnc2c1Cl)c1nccc(Nc2cc(C3CC3)[nH]n2)n1
[1]
  pKi: 8.30
[6]
  pIC50: 7.07
[4]
  pKi: 6.26
[7]
  Papp A→B: 7.4 ×10⁻⁶ cm/s
[8]
  Papp B→A: 11.1 ×10⁻⁶ cm/s
[19]
  clearance: 61 mL/min/kg
[13]
  fraction unbound: 0.007
Aurora kinase A
  pKi: 8.28

## C[C@H](Nc1nccc(Nc2cc(C3CC3)[nH]n2)n1)c1ccc2[nH]ccc2c1
[1]
  pKi: 7.51
[6]
  pIC50: 6.92
[4]
  pKi: 7.38
[12]
  clearance: 30 mL/min/kg

## Cn1cnc2cc(CNc3nccc(Nc4cc(C5CC5)[nH]n4)n3)ccc21
[1]
  pKi: 6.22
[4]
  pKi: 5.78

## N[C@H]1CC[C@H](Nc2nccc(Nc3cc(C4CC4)[nH]n3)n2)CC1
[1]
  pKi: 6.80
[4]
  pKi: 7.00

## NC1CCN(c2cccc(Nc3cc(C4CC4)[nH]n3)n2)CC1
[1]
  pKi: 6.25
[4]
  pKi: 6.21

## c1cc(Nc2cc(C3CC3)[nH]n2)nc(NCc2ccc3[nH]ccc3c2)n1
[1]
  pKi: 7.57
[4]
  pKi: 6.84
[20]
  logD: 3
[12]
  clearance: 30.1 mL/min/kg
